SMILES strings stand for the structures.

Data set [1] relates to MCF7 cells. The data set is described as follows: XTT cytotoxicity, MCF7. The data set is classed as cell-based. To be noted: Homo sapiens; MCF7, breast adenocarcinoma, non-resistant. A digest of the protocol: (§1)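 Cytotoxicity was measured by XTT assay in a panel of human tumor cell lines spanning haematological and solid cancers.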
A general note: Tetrazolium dyes change colour on reduction, which living cells bring about.

Data set [2] relates to myeloma cell lines. Nature of the data set: XTT cytotoxicity, 10 different myeloma cell lines. The conditions noted are these: range over 10 different myeloma cell lines. It counts as cell-based. The method, then:
The cytotoxic activity of the novel family was evaluated against various tumor cells, including myeloma cells, acute lymphoblastic leukemia cells, acute monocytic leukemia cells, chronic myelogenous leukemia cells, pancreatic cancer cells, breast cancer cells, uterine sarcoma cells, cervix adenocarcinoma cells, ovary cancer cells, melanoma cells, osteosarcoma cells, prostate cancer cells, lung cancer cells, neuroblastoma cells and colorectal adenocarcinoma cells by XTT assay.
When this family of compounds were tested on different cell lines from the same type of tumor with different phenotypes there were no significant differences in cytotoxic sensitivity.

A short description of data set [3]: Xenograft murine myeloma model, body weight and toxicity signs. The data set is classed as in vivo. To be noted: intraperitoneally, during the experiment. As to the method:
In vivo anti-cancer efficacy of the molecules was evaluated in a xenograft murine myeloma model. Male SCID mice (6-8 weeks old) were maintained in accordance with Institutional Animal Care Use Committee guidelines. Mice were housed in the Animal Research Facility of Ariel University and experiments were performed in accordance with approved protocols. During the experiment, RPMI8226 myeloma cells in exponential growth were harvested from culture, washed three times with sterile PBS, counted and resuspended in sterile PBS (1.5×10^7cells mouse/0.1 ml PBS) and subcutaneously injected on the right flank of male C.B-17/IcrHsd-Prkdc-scid, […] mice. After two weeks of cells injection, when tumors reached a size between 30-60 mm3, mice were assigned into different groups (n=3-5) and started receiving treatment. Body weights were determined twice weekly along with tumor volume {V=[length×(width)2]/2}measurements using electronical caliper. Mice were sacrificed when mean tumor volume of vehicle treated group reached 1500 mm3, or mice appeared moribund to prevent unnecessary morbidity.
The weight of the tumors was measured at the end of the experiment and expressed as mean tumor weight per group. Body weight is expressed as mean body mice weight per group.

Data set [4] deals with purified tubulin. Nature of the data set: Tubulin polymerization, cell-free assay. The data set is classed as biochemical. The conditions noted are these: tubulin 2.00 mg/mL; 1, 15 and 30 μM; 37° C., 100 min; vs vehicle. The method, then:
The effect of the compounds on their ability to inhibit tubulin polymerization, was tested against a vehicle control by evaluating polymerization of purified tubulin in a cell-free assay where tubulin (2.00 mg/mL) was exposed to vehicle control or 1, 15 and 30 μM of the compounds (n=2). Polymerizations were tracked by an increase in fluorescence excitation wavelength is 340-360 nm and emission wavelength at 410-460 nm. Fluorescence was monitored at 37° C. every 30 sec for 100 min.

Data set [5] concerns RPMI 8226 cells. Nature of the data set: XTT cytotoxicity, RPMI 8226. It counts as cell-based. To be noted: Homo sapiens; RPMI 8226, multiple myeloma, non-resistant; read-out: IC50. A digest of the protocol:
as §1

In data set [6] the test system is NALM6 cells. The data set is described as follows: XTT cytotoxicity, NALM6. It counts as cell-based. The conditions noted are these: Homo sapiens, NALM-6; NALM6, acute lymphoblastic leukemia, non-resistant; read-out: IC50.
For data set [7], the system named is HUVEC cells. The data set is described as follows: HUVEC tube formation on Matrigel. The data set is classed as cell-based, human. The method, then: Endothelial cells seeded on Matrigel are able to form three-dimensional capillary structures with a lumen resembling the first angiogenesis steps.
The analysis of anti-angiogenic effect was performed by exposing HUVEC cells to the compounds and seeding them on Matrigel matrix for 4 hours. During this time, control group formed an extensive network lumen-like structure as compared to partially disorganized cells treated with lower doses of SMS077 and SMS182 and disorganized and rounded cells treated with higher doses of the molecules.

The nature of data set [8]: Water solubility (microscope images). The data set is classed as physicochemical. To be noted: compared with benzene, furan, thiophene, thiazole or pyridine analogues. From the text:
Solubility of the synthesized molecules was compared to equivalent molecules having a benzene, furan, thiophene, thiazole or pyridine group instead of oxazole group (Table 2).

Broadly, the IC50 is the concentration needed to halve the response being measured. As to `CCCCCOC(=O)c1[nH]c2c(c1C)C(=O)CC(c1ncco1)C2` (stereo not drawn) [SMS077, pentyl 3-methyl-6-(oxazol-2-yl)-4-oxo-4,5,6,7-tetrahydro-1H-indole-2-carboxylate], the IC50 in data set [1] was 380 nM; in data set [2] it was 14 to 52 nM; in data set [5] it was 26 nM; in data set [6] it was 19 nM. In data set [3], the “body weight and other signs of potential toxicity” value is reported as “No significant changes in body weight or other signs of potential toxicity”. In addition, the “rate of tubulin polymerization” value in data set [4] is “inhibited the rate of tubulin polymerization in a concentration-dependent manner”. In data set [7] (4 hours), the “inhibition of tubule formation” value was “dose dependent inhibition of tubule formation”. Moreover, the “concentration at which tubule formation was significantly inhibited” value in data set [7] (4 hours of treatment) stood at 75 nM. Also, the water solubility result in data set [8] was “better water solubility”.
